Measurements from patent US20190209472A1, “FORMULATIONS FOR DERMAL DELIVERY OF POLYMER CONJUGATES OF INDOLOCARBAZOLE COMPOUNDS WITH REDUCED EXPOSURE” (Sienna Biopharmaceuticals, Inc., priority 2017, published 2019).
Read-outs that look alike come from different tables or passages of the source.

System: lesions of psoriasis vulgaris
Excerpt: This was a Phase I, single-center, randomized, double-blind, placebo-controlled study in male and female patients with stable psoriasis vulgaris aged >18 and <71 years. Sixteen patients were enrolled in 2 treatment groups. […] Patients attended a screening visit within 21 days prior to Day 1. Patients were then admitted to the CPU in the afternoon of Day −1 and remained resident in the CPU until the morning of Day 8. Patients attended a follow-up visit 7 to 10 days after the last treatment administration on Day 7.
The ointment was applied by the CPU staff, using a spatula and finger cot.
Physicians Global Assessment (PGA) scores were assessed at screening, Day 1, Day 7 and at follow-up. Digital photographs of the application sites were also taken on admission to the CPU, Day 7 and at follow-up.

## (9S, 10R, 12R)-10-(3′-mPEG2000-1′,3′-oxazolidine-2′,4′-dione)-2,3,9,10,11,12-hexahydro-9-methyl-1-oxo-9,12-epoxy-1H-diindolo[1,2,3-fg:3′,2′,1′-k,l]pyrrolo[3,4-i][1,6] benzodiazocine] [CT327]
7-day dosing period
  Complete resolution of plaque(s): No patients showed complete resolution
Plaque 1, DAY 1, N = 12
  PGA Erythma 1: FAINT ERYTHEMA, patients (%): (16.7%)
  PGA Erythma 2: LIGHT RED COLOURATION, patients (%): (66.7%)
  PGA Erythma 3: MODERATE RED COLOURATION, patients (%): (8.3%)
  PGA Erythma 4: BRIGHT RED COLOURATION, patients (%): (8.3%)
  PGA Induration 1: MINIMAL PLAQUE ELEVATION, =0.25 MM, patients (%): (33.3%)
  PGA Induration 2: MILD PLAQUE ELEVATION, =0.5 MM, patients (%): (41.7%)
  PGA Induration 3: MODERATE PLAQUE ELEVATION, =0.75 MM, patients (%): (25.0%)
  PGA Scaling 2: MILD, FINE SCALE DOMINATES, patients (%): (58.3%)
  PGA Scaling 3: MODERATE, COARSE SCALE PREDOMINATES, patients (%): (33.3%)
  PGA Scaling 4: MARKED, THICK, NON-TENACIOUS SCALE DOMINATES, patients (%): (8.3%)
  Physician Static Global Score 1: MINIMAL, patients (%): (8.3%)
  Physician Static Global Score 2: MILD, patients (%): (58.3%)
  Physician Static Global Score 3: MODERATE, patients (%): (33.3%)
Plaque 1, DAY 7, N = 12
  PGA Erythma 1: FAINT ERYTHEMA, patients (%): (16.7%)
  PGA Erythma 2: LIGHT RED COLOURATION, patients (%): (66.7%)
  PGA Erythma 3: MODERATE RED COLOURATION, patients (%): (8.3%)
  PGA Erythma 4: BRIGHT RED COLOURATION, patients (%): (8.3%)
  PGA Induration 1: MINIMAL PLAQUE ELEVATION, =0.25 MM, patients (%): (66.7%)
  PGA Induration 2: MILD PLAQUE ELEVATION, =0.5 MM, patients (%): (33.3%)
  PGA Scaling 0: NO EVIDENCE OF SCALING, patients (%): (8.3%)
  PGA Scaling 1: MINIMAL, OCCASIONAL FINE SCALE OVER LESS THAN 5% OF THE LESION, patients (%): (58.3%)
  PGA Scaling 2: MILD, FINE SCALE DOMINATES, patients (%): (33.3%)
  Physician Static Global Score 1: MINIMAL, patients (%): (41.7%)
  Physician Static Global Score 2: MILD, patients (%): (50.0%)
  Physician Static Global Score 3: MODERATE, patients (%): (8.3%)
Plaque 1, FOLLOW-UP, N = 12
  PGA Erythma 1: FAINT ERYTHEMA, patients (%): (33.3%)
  PGA Erythma 2: LIGHT RED COLOURATION, patients (%): (58.3%)
  PGA Erythma 4: BRIGHT RED COLOURATION, patients (%): (8.3%)
  PGA Induration 1: MINIMAL PLAQUE ELEVATION, =0.25 MM, patients (%): (33.3%)
  PGA Induration 2: MILD PLAQUE ELEVATION, =0.5 MM, patients (%): (66.7%)
  PGA Scaling 1: MINIMAL, OCCASIONAL FINE SCALE OVER LESS THAN 5% OF THE LESION, patients (%): (16.7%)
  PGA Scaling 2: MILD, FINE SCALE DOMINATES, patients (%): (58.3%)
  PGA Scaling 3: MODERATE, COARSE SCALE PREDOMINATES, patients (%): (25.0%)
  Physician Static Global Score 1: MINIMAL, patients (%): (16.7%)
  Physician Static Global Score 2: MILD, patients (%): (75.0%)
  Physician Static Global Score 3: MODERATE, patients (%): (8.3%)
Plaque 1, SCREENING, N = 12
  PGA Erythma 1: FAINT ERYTHEMA, patients (%): (8.3%)
  PGA Erythma 2: LIGHT RED COLOURATION, patients (%): (41.7%)
  PGA Erythma 3: MODERATE RED COLOURATION, patients (%): (41.7%)
  PGA Erythma 4: BRIGHT RED COLOURATION, patients (%): (8.3%)
  PGA Induration 1: MINIMAL PLAQUE ELEVATION, =0.25 MM, patients (%): (33.3%)
  PGA Induration 2: MILD PLAQUE ELEVATION, =0.5 MM, patients (%): (50.0%)
  PGA Induration 3: MODERATE PLAQUE ELEVATION, =0.75 MM, patients (%): (8.3%)
  PGA Induration 4: MARKED PLAQUE ELEVATION, =1 MM, patients (%): (8.3%)
  PGA Scaling 1: MINIMAL, OCCASIONAL FINE SCALE OVER LESS THAN 5% OF THE LESION, patients (%): (16.7%)
  PGA Scaling 2: MILD, FINE SCALE DOMINATES, patients (%): (33.3%)
  PGA Scaling 3: MODERATE, COARSE SCALE PREDOMINATES, patients (%): (41.7%)
  PGA Scaling 4: MARKED, THICK, NON-TENACIOUS SCALE DOMINATES, patients (%): (8.3%)
  Physician Static Global Score 1: MINIMAL, patients (%): (16.7%)
  Physician Static Global Score 2: MILD, patients (%): (41.7%)
  Physician Static Global Score 3: MODERATE, patients (%): (33.3%)
  Physician Static Global Score 4: MARKED, patients (%): (8.3%)
Plaque 2, DAY 1, N = 12
  PGA Erythma 2: LIGHT RED COLOURATION, patients (%): (33.3%)
  PGA Induration 1: MINIMAL PLAQUE ELEVATION, =0.25 MM, patients (%): (8.3%)
  PGA Induration 2: MILD PLAQUE ELEVATION, =0.5 MM, patients (%): (16.7%)
  PGA Induration 3: MODERATE PLAQUE ELEVATION, =0.75 MM, patients (%): (8.3%)
  PGA Scaling 2: MILD, FINE SCALE DOMINATES, patients (%): (16.7%)
  PGA Scaling 3: MODERATE, COARSE SCALE PREDOMINATES, patients (%): (8.3%)
  PGA Scaling 4: MARKED, THICK, NON-TENACIOUS SCALE DOMINATES, patients (%): (8.3%)
  Physician Static Global Score 2: MILD, patients (%): (25.0%)
  Physician Static Global Score 3: MODERATE, patients (%): (8.3%)
Plaque 2, DAY 7, N = 12
  PGA Erythma 2: LIGHT RED COLOURATION, patients (%): (25.0%)
  PGA Erythma 3: MODERATE RED COLOURATION, patients (%): (8.3%)
  PGA Induration 1: MINIMAL PLAQUE ELEVATION, =0.25 MM, patients (%): (25.0%)
  PGA Induration 2: MILD PLAQUE ELEVATION, =0.5 MM, patients (%): (8.3%)
  PGA Scaling 1: MINIMAL, OCCASIONAL FINE SCALE OVER LESS THAN 5% OF THE LESION, patients (%): (16.7%)
  PGA Scaling 2: MILD, FINE SCALE DOMINATES, patients (%): (16.7%)
  Physician Static Global Score 1: MINIMAL, patients (%): (8.3%)
  Physician Static Global Score 2: MILD, patients (%): (25.0%)
Plaque 2, FOLLOW-UP, N = 12
  PGA Erythma 2: LIGHT RED COLOURATION, patients (%): (33.3%)
  PGA Induration 1: MINIMAL PLAQUE ELEVATION, =0.25 MM, patients (%): (8.3%)
  PGA Induration 2: MILD PLAQUE ELEVATION, =0.5 MM, patients (%): (25.0%)
  PGA Scaling 1: MINIMAL, OCCASIONAL FINE SCALE OVER LESS THAN 5% OF THE LESION, patients (%): (8.3%)
  PGA Scaling 2: MILD, FINE SCALE DOMINATES, patients (%): (25.0%)
  Physician Static Global Score 2: MILD, patients (%): (33.3%)
Plaque 2, SCREENING, N = 12
  PGA Erythma 2: LIGHT RED COLOURATION, patients (%): (33.3%)
  PGA Erythma 3: MODERATE RED COLOURATION, patients (%): (25.0%)
  PGA Induration 1: MINIMAL PLAQUE ELEVATION, =0.25 MM, patients (%): (8.3%)
  PGA Induration 2: MILD PLAQUE ELEVATION, =0.5 MM, patients (%): (33.3%)
  PGA Induration 3: MODERATE PLAQUE ELEVATION, =0.75 MM, patients (%): (8.3%)
  PGA Induration 4: MARKED PLAQUE ELEVATION, =1 MM, patients (%): (8.3%)
  PGA Scaling 2: MILD, FINE SCALE DOMINATES, patients (%): (16.7%)
  PGA Scaling 3: MODERATE, COARSE SCALE PREDOMINATES, patients (%): (33.3%)
  PGA Scaling 4: MARKED, THICK, NON-TENACIOUS SCALE DOMINATES, patients (%): (8.3%)
  Physician Static Global Score 2: MILD, patients (%): (33.3%)
  Physician Static Global Score 3: MODERATE, patients (%): (16.7%)
  Physician Static Global Score 4: MARKED, patients (%): (8.3%)
Plaque 3, DAY 1, N = 12
  PGA Erythma 2: LIGHT RED COLOURATION, patients (%): (16.7%)
  PGA Induration 2: MILD PLAQUE ELEVATION, =0.5 MM, patients (%): (8.3%)
  PGA Induration 3: MODERATE PLAQUE ELEVATION, =0.75 MM, patients (%): (8.3%)
  PGA Scaling 2: MILD, FINE SCALE DOMINATES, patients (%): (8.3%)
  PGA Scaling 4: MARKED, THICK, NON-TENACIOUS SCALE DOMINATES, patients (%): (8.3%)
  Physician Static Global Score 2: MILD, patients (%): (8.3%)
  Physician Static Global Score 3: MODERATE, patients (%): (8.3%)
Plaque 3, DAY 7, N = 12
  PGA Erythma 2: LIGHT RED COLOURATION, patients (%): (8.3%)
  PGA Erythma 3: MODERATE RED COLOURATION, patients (%): (8.3%)
  PGA Induration 1: MINIMAL PLAQUE ELEVATION, =0.25 MM, patients (%): (16.7%)
  PGA Scaling 2: MILD, FINE SCALE DOMINATES, patients (%): (16.7%)
  Physician Static Global Score 2: MILD, patients (%): (16.7%)
Plaque 3, FOLLOW-UP, N = 12
  PGA Erythma 2: LIGHT RED COLOURATION, patients (%): (16.7%)
  PGA Induration 1: MINIMAL PLAQUE ELEVATION, =0.25 MM, patients (%): (8.3%)
  PGA Induration 2: MILD PLAQUE ELEVATION, =0.5 MM, patients (%): (8.3%)
  PGA Scaling 2: MILD, FINE SCALE DOMINATES, patients (%): (16.7%)
  Physician Static Global Score 2: MILD, patients (%): (16.7%)
Plaque 3, SCREENING, N = 12
  PGA Erythma 2: LIGHT RED COLOURATION, patients (%): (8.3%)
  PGA Erythma 3: MODERATE RED COLOURATION, patients (%): (16.7%)
  PGA Induration 2: MILD PLAQUE ELEVATION, =0.5 MM, patients (%): (8.3%)
  PGA Induration 3: MODERATE PLAQUE ELEVATION, =0.75 MM, patients (%): (8.3%)
  PGA Induration 4: MARKED PLAQUE ELEVATION, =1 MM, patients (%): (8.3%)
  PGA Scaling 3: MODERATE, COARSE SCALE PREDOMINATES, patients (%): (16.7%)
  PGA Scaling 4: MARKED, THICK, NON-TENACIOUS SCALE DOMINATES, patients (%): (8.3%)
  Physician Static Global Score 2: MILD, patients (%): (8.3%)
  Physician Static Global Score 3: MODERATE, patients (%): (8.3%)
  Physician Static Global Score 4: MARKED, patients (%): (8.3%)
